Experimental data from patent US5521156A, “Cyclic neurokinin A antagonists” (priority 1994, dated 1996).
Where a SMILES comes first, the peptide text is derived from it. [ ]: non-standard residue; d: D form. Phe(4-NO2) = N[C@@H](Cc1ccc([N+](=O)[O-])cc1)C(=O)O; Phe(4-Cl) = N[C@@H](Cc1ccc(Cl)cc1)C(=O)O; Phe(4-NH2) = Nc1ccc(C[C@H](N)C(=O)O)cc1

How the values were obtained:
[1] = molecular target: T1, human jejunal NK-2 receptor (Homo sapiens, UniProt P21452); assay: NK-2 receptor binding (125I-neurokinin A) in HSKR-1 cell membranes; settings: HSKR-1 cells (mouse 3T3 fibroblasts expressing human jejunal NK-2 receptor); 0.1 nM 125I-iodohistidyl-1-neurokinin A; mean ± S.E.M.
T1 construct: expressed in transfected cells; host or cells: HSKR-1 (mouse 3T3 fibroblasts)
T1 sequence (P21452 1-398): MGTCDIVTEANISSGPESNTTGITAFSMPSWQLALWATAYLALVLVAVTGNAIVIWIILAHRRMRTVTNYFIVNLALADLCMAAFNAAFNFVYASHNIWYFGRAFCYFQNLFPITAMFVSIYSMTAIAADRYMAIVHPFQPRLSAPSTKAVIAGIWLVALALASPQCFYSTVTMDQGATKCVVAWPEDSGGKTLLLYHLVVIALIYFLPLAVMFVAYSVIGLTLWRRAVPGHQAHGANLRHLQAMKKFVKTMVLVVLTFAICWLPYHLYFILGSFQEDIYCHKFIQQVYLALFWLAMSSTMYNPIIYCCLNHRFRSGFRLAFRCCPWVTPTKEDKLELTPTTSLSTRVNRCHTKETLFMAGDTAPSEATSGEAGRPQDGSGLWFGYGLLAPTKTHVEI
Method: (§1) Receptor binding assays were performed in crude tissue membranes. The NK-1 receptor binding affinity of proposed tachykinin antagonists was evaluated in guinea pig lungs (Keystone Biologicals, Cleveland, OH, kept frozen at -80° C. until use). Affinity for the NK-2 receptor was evaluated in HSKR-1 cells which are mouse 3T3 fibroblasts expressing the human jejunal NK-2 receptor. Tissues or cells were homogenized with a Polytron in 15 volumes of 50 mM Tris-HCl buffer (pH 7.4, 4° C.) containing 120 mM NaCl and 5 mM KCl and centrifuged at 48,000×g for 12 min. at 4° C. The pellet was resuspended in 15 volumes of 50 mM Tris-HCl buffer containing 10 mM EDTA and 300 mM KCl then set on ice for 30 min. The suspension was cetrifuged as above and the pellet washed by resuspension and cetrifugation two additional times in 50 mM Tris-HCl buffer (pH 7.4, 4° C.). The final pellet was resuspended in a concentration of 20 mg/ml in incubation buffer then kept at room temperature for at least 15 min prior to use. Receptor binding was initiated by addition of 250 μl membrane preparation (final protein concentration; lungs=286 μg/tube, HSKR-1 cells=100 μg/tube) in duplicate to 0.1 nM of the following radioligands: for NK-1 receptor assays, ^125 I-Bolton-Hunter Lys-3 labeled substance P (New England Nuclear, specific activity, 2200 Ci/mmol); for NK-2 receptor assays, ^125 iodohistidyl-1-neurokinin A (Amersham, specific activity, 2000 Ci/mmol) in a final volume of 500 μl of buffer containing 50 mM Tris-HCl (pH 7.4 at room temperature), 0.1% bovine serum albumin, 2 mM MnCl2, 40 μg/ml bacitracin, 4 μg/ml leupeptin and chymostatin, 1 μM thiorphan and various doses of the tachykinin antagonists. Incubations were performed at room temperature for 90 min (NK-1 receptor assays) or 2 hr (NK-2 receptor assays); binding was terminated by addition of 50 mM Tris-HCl buffer (pH 7.4, 4° C.) and filtration under vacuum through GF/B filters presoaked with 0.1% polyethyleneimine (NK-1 receptor assays) or 0.5% bovine serum albumin (NK-2 receptor assays). Nonspecific binding was defined as binding in the presence of 1 μM substance P (NK-1 receptor assays) or neurokinin A (NK-2 receptor assays) (Peptides International, Inc., Louisville, Ky.). Specific binding was calculated by subtracting nonspecific binding from total binding and corresponded to 70-90% of total binding. Data were analyzed and IC50 values generated by nonlinear regression using an iterative curve fitting program (GraphPAD Inplot, San Diego, Calif.). Protein was determined by the method of Lowry.

[2] = molecular target: T2, NK-1 receptor (Cavia porcellus, UniProt P30547); assay: NK-1 receptor binding (125I-Bolton-Hunter substance P) in guinea pig lung membranes; settings: 0.1 nM 125I-Bolton-Hunter Lys-3 substance P, mean ± S.E.M.
T2 construct: tissue Keystone Biologicals, Cleveland, OH; host or cells: guinea pig lung
T2 sequence (P30547 whole entry): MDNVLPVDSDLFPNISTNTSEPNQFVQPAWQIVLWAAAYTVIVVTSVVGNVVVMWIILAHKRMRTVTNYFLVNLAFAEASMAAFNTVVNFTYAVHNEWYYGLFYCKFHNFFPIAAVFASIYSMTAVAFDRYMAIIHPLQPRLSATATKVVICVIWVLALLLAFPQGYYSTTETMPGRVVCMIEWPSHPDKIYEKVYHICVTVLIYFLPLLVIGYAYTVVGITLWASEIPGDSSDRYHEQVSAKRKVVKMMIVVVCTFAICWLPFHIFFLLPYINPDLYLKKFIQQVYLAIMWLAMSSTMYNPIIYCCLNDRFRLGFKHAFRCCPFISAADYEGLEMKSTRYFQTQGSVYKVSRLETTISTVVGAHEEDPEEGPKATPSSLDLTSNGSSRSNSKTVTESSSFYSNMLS
Method: as §1

SMILES | IC50 [1] | IC50 [2]
CC(C)C[C@@H]1NC(=O)CNC(=O)[C@H](Cc2c[nH]c3ccccc23)NC(=O)[C@H](CCCNC(=N)N)NC(=O)[C@H](CC(C)C)NC(=O)CNC(=O)[C@H](Cc2c[nH]c3ccccc23)NC(=O)[C@H](CCCNC(=N)N)NC1=O [cyclo[Leu-Arg-Trp-Gly-Leu-Arg-Trp-Gly]] (cyclo(GLRWGLRW)) | 768 ± 75 nM | 
N=C(N)NCCC[C@@H]1NC(=O)[C@@H]2CCCN2C(=O)[C@@H](Cc2ccccc2)NC(=O)[C@H](Cc2ccccc2)NC(=O)CNC(=O)[C@H](Cc2ccccc2)NC1=O [cyclo[Phe--phe--Pro--Arg--Phe--Gly], cyclo[Phe-phe-Pro-Arg-Phe-Gly]] (cyclo(FGF[dF]PR)) | 674 ± 57 nM | 9310 ± 2070 nM
CC(C)C[C@@H]1NC(=O)[C@H](Cc2c[nH]c3ccccc23)NC(=O)[C@H](Cc2ccc(O)cc2)NC(=O)CNC(=O)[C@H](Cc2c[nH]c3ccccc23)NC(=O)[C@H](CCCNC(=N)N)NC1=O [cyclo[Tyr--Trp--Leu--Arg--Trp--Gly]] (cyclo(GYWLRW)) | 305 ± 31 nM | 10000 nM
CC(C)C[C@@H]1NC(=O)[C@@H](Cc2c[nH]c3ccccc23)NC(=O)[C@H](Cc2ccc(O)cc2)NC(=O)[C@H](Cc2c[nH]c3ccccc23)NC(=O)CNC(=O)[C@H](CCCNC(=N)N)NC1=O [cyclo[Tyr--trp--Leu--Arg--Gly--Trp], cyclo[Tyr-trp-Leu-Arg-Gly-Trp]] (cyclo(GWY[dW]LR)) | 360 ± 21 nM | 
CC(C)C[C@@H]1NC(=O)[C@@H](Cc2c[nH]c3ccccc23)NC(=O)[C@H](Cc2ccc(O)cc2)NC(=O)[C@H](C)NC(=O)[C@H](Cc2c[nH]c3ccccc23)NC(=O)[C@H](CCCNC(=N)N)NC1=O [cyclo[Tyr--trp--Leu--Arg--Trp--Ala], cyclo[Tyr-trp-Leu-Arg-Trp-Ala]] (cyclo(AY[dW]LRW)) | 9.9 ± 0.9 nM | 
N=C(N)NCCC[C@@H]1NC(=O)[C@@H]2CCCN2C(=O)[C@@H](Cc2c[nH]c3ccccc23)NC(=O)[C@H](Cc2ccc(O)cc2)NC(=O)CNC(=O)[C@H](Cc2c[nH]c3ccccc23)NC1=O [cyclo[Tyr--trp--Pro--Arg--Trp--Gly], cyclo[Tyr-trp-Pro-Arg-Trp-Gly]] (cyclo(GY[dW]PRW)) | 5.13 ± 0.36 nM | > 10000 nM
CC(C)C[C@@H]1NC(=O)[C@@H](Cc2c[nH]c3ccccc23)NC(=O)[C@H](Cc2ccc(O)cc2)NC(=O)CNC(=O)[C@H](Cc2ccc(Cl)cc2)NC(=O)[C@H](CCCNC(=N)N)NC1=O [cyclo[Tyr-trp-Leu-Arg-(p-Cl-Phe)-Gly]] (cyclo(GY[dW]LR[Phe(4-Cl)])) | 13.3 ± 1.31 nM | ~10000 nM
CC(C)C[C@@H]1NC(=O)[C@@H](Cc2c[nH]c3ccccc23)NC(=O)[C@H](Cc2ccc(O)cc2)NC(=O)CNC(=O)[C@H](Cc2ccc(N)cc2)NC(=O)[C@H](CCCNC(=N)N)NC1=O [cyclo[Tyr-trp-Leu-Arg-(p-NH2 -Phe)-Gly]] (cyclo(GY[dW]LR[Phe(4-NH2)])) | 20.2 ± 2.03 nM | > 10000 nM
CC(C)C[C@@H]1NC(=O)[C@@H](Cc2c[nH]c3ccccc23)NC(=O)[C@H](Cc2ccc(O)cc2)NC(=O)CNC(=O)[C@H](Cc2ccc([N+](=O)[O-])cc2)NC(=O)[C@H](CCCNC(=N)N)NC1=O [cyclo[Tyr-trp-Leu-Arg-(p-NO2 -Phe)-Gly]] (cyclo(GY[dW]LR[Phe(4-NO2)])) | 11.7 ± 0.44 nM | > 10000 nM
CC(C)C[C@@H]1NC(=O)[C@@H](Cc2c[nH]c3ccccc23)NC(=O)[C@@H](Cc2ccc(O)cc2)NC(=O)CNC(=O)[C@H](Cc2c[nH]c3ccccc23)NC(=O)[C@H](CCCNC(=N)N)NC1=O [cyclo[tyr--trp--Leu--Arg--Trp--Gly]] (cyclo(G[dY][dW]LRW)) | 4.97 ± 0.42 nM | > 10000 nM

The next lines start with the values.

IC50 [1] | IC50 [2] | SMILES
4.7 ± 0.15 nM | 4830 ± 297 nM | CC(C)C[C@@H]1NC(=O)[C@@H](Cc2c[nH]c3ccccc23)NC(=O)[C@H](Cc2c[nH]c3ccccc23)NC(=O)CNC(=O)[C@H](Cc2c[nH]c3ccccc23)NC(=O)[C@H](CCCNC(=N)N)NC1=O [cyclo[Trp--trp--Leu--Arg--Trp--Gly], cyclo[Trp-trp-Leu-Arg-Trp-Gly]] (cyclo(GW[dW]LRW))
56.7 ± 5.45 nM |  | C[C@@H]1NC(=O)[C@@H](Cc2c[nH]c3ccccc23)NC(=O)[C@H](Cc2ccc(O)cc2)NC(=O)CNC(=O)[C@H](Cc2c[nH]c3ccccc23)NC(=O)[C@H](CCCNC(=N)N)NC1=O [cyclo[Tyr--trp--Ala--Arg--Trp--Gly], cyclo[Tyr-trp-Ala-Arg-Trp-Gly]] (cyclo(ARWGY[dW]))
30 ± 2.52 nM | 5170 ± 507 nM | CC(C)C[C@@H]1NC(=O)[C@@H](Cc2c[nH]c3ccccc23)NC(=O)[C@H](Cc2ccc(O)cc2)NC(=O)[C@@H]2CCCN2C(=O)[C@H](Cc2c[nH]c3ccccc23)NC(=O)[C@H](CCCNC(=N)N)NC1=O [cyclo[Tyr--trp--Leu--Arg--Trp--Pro], cyclo[Tyr-trp-Leu-Arg-Trp-Pro]] (cyclo(LRWPY[dW]))
7.99 ± 1.02 nM |  | CC(C)C[C@@H]1NC(=O)[C@@H](Cc2c[nH]c3ccccc23)NC(=O)[C@H](Cc2ccc(O)cc2)NC(=O)[C@@H](C)NC(=O)[C@H](Cc2c[nH]c3ccccc23)NC(=O)[C@H](CCCNC(=N)N)NC1=O [cyclo[Tyr--trp--Leu--Arg--Trp--ala]] (cyclo(LRW[dA]Y[dW]))
206 ± 15 nM |  | CC(C)C[C@@H]1NC(=O)[C@@H](Cc2c[nH]c3ccccc23)NC(=O)[C@H](Cc2ccc(O)cc2)NC(=O)[C@H](C)NC(=O)[C@H](Cc2ccc(O)cc2)NC(=O)[C@H](CCCNC(=N)N)NC1=O [cyclo[Tyr--trp--Leu--Arg--Tyr--Ala], cyclo[Tyr-trp-Leu-Arg-Tyr-Ala]] (cyclo(AY[dW]LRY))
18.9 ± 1.58 nM | > 10000 nM | CC(C)C[C@@H]1NC(=O)[C@@H](Cc2c[nH]c3ccccc23)NC(=O)[C@H](Cc2ccc(O)cc2)NC(=O)CNC(=O)[C@H](Cc2ccc(O)cc2)NC(=O)[C@H](CCCNC(=N)N)NC1=O [cyclo[Tyr--trp--Leu--Arg--Tyr--Gly], cyclo[Tyr-trp-Leu-Arg-Tyr-Gly]] (cyclo(GY[dW]LRY))
193 ± 11.5 nM | > 10000 nM | CC(C)C[C@@H]1NC(=O)[C@@H](Cc2c[nH]c3ccccc23)NC(=O)[C@H](Cc2ccc(O)cc2)NC(=O)CNC(=O)[C@@H](Cc2c[nH]c3ccccc23)NC(=O)[C@H](CCCNC(=N)N)NC1=O [cyclo[Tyr--trp--Leu--Arg--trp--Gly]] (cyclo(GY[dW]LR[dW]))
407 ± 52 nM |  | CC(C)C[C@@H]1NC(=O)[C@H](CCC(N)=O)NC(=O)[C@@H](Cc2ccc(O)cc2)NC(=O)CNC(=O)[C@H](Cc2c[nH]c3ccccc23)NC(=O)[C@H](CCCNC(=N)N)NC1=O [cyclo[tyr--Gln--Leu--Arg--Trp--Gly], cyclo[tyr-Gln-Leu-Arg-Trp-Gly]] (cyclo(G[dY]QLRW))
